The values below come from patent US11260050B2, “Combination of cotinine plus antioxidant for treatment-resistant depression and correction of astrocytes functional deficit induced by depression and other neuropathological” (UNIVERSIDAD SAN SEBASTIAN, priority 2017, dated 2022).

Test [1] has as its system conditioned mice. Description: Fear retention and extinction tests after fear conditioning (Example 4). It counts as in vivo, Mice C57BL/6. Here is the method:
(§1) Three-month-old mice (n=5-6/condition) were weighed and assigned to treatment groups. Mice were treated with vehicle or drugs, starting two h after fear conditioning and daily after behavioral testing until euthanasia. Mice received daily treatments with 1. PBS (phosphate buffer saline, pH 7.4) via intranasal; 2. Cotinine (10 mg/ml) dissolved in PBS via intranasal (IN Cot, 24 μl); 3. Krill oil dissolved in PBS, via intranasal (48 mg/ml, 24 μl); 4. Cotinine (10 mg/ml) plus krill oil dissolved in PBS, via intranasal (48 mg/ml, 24 μl); 5.
(§2) For intranasal delivery, mice were hand-restrained, placed in a supine position, and given two 12 μl drops of cotinine solutions, or PBS, into both nares consecutively. Mice were given an extra 12 μl treatment drop if the subject forcibly ejected or sneezed out the solution. Mice were held supine for 5-10 seconds after delivery to ensure that all fluid was inhaled.
Contextual fear conditioning was performed as described. The conditioning chamber used (33 cm×20 cm×22 cm) is surrounded by a sound-attenuating box with a camera connected to freeze frame software (MED Associates Inc.) and equipped to provide a background white noise (72 dB). The conditioning chamber contains in one side a speaker and in the opposite side has a 24V light, and a 36-bar insulated shock grid floor. To perform this test, each mouse was placed in the conditioning chamber for 2 min before the onset of a discrete tone (a sound that will last 30 seconds (sec) at 2,800 Hz and 85 dB). In the last two seconds of this tone, mice received a foot shock of 1 mA, kept in the conditioning chamber for 2 min and returned to their home cages. Between trials, the chamber was sanitized with 70% ethanol and dried. Freezing behavior was defined as the absence of all movement except the one needed for breathing was assessed using the FreezeView Software (MED Associates Inc.).
Fear retention and extinction experiments were performed as described, using the same cohorts of mice and reproduced in two separate experiments. To assess fear retention and mice underwent re-exposure to the conditioning chamber in the absence of an unconditioned stimulus (shock or auditory cues) for 3 minutes (min) in daily extinction trials. Freezing behavior was measured using the ANY-Maze® software (Stoelting CO, USA). The extinction trials were continued until the decrease in freezing behavior reached a stable level.

The test system of test [2] is conditioned mice. As to the kind of experiment: Forced swim test after fear conditioning and extinction (Example 4). In kind it is in vivo, Mice C57BL/6. The settings on record: FC mice after extinction; Tukey: cotinine p<0.001, combination p<0.005, sertraline p<0.05. As to the method: as §1, §2

Turning to `CN[C@H]1CC[C@@H](c2ccc(Cl)c(Cl)c2)c2ccccc21.Cl` [Sertraline, (1S,4S)-4-(3,4-dichlorophenyl)-1,2,3,4-tetrahydro-N-methyl-1-naphthalenamine hydrochloride, reference compound], the “freezing behavior during daily extinction trials (speed of fear extinction)” value in the test on conditioned mice [1] (5 days of extinction, daily treatment) is given as “overall slower extinction of fear than controls”. Further, the “fear reaction (freezing) in the retention test” value with conditioned mice [1] (treatment started 2 h after FC, IN cotinine 10 mg/ml, IN KO 48 mg/ml, oral sertraline 3 mg/kg) is “no significant effects”. Besides, the “depressive-like behavior (immobility) in the forced swim test” value with conditioned mice [2] was “significantly decreased depressive-like behavior”.
